Structures can show the parent of a compound that is named as a salt.
These molecules were tested against T1, human CGT (ceramide galactosyltransferase), CHO/CGT lysate (Homo sapiens, UniProt Q16880) (assay: CGT enzyme assay, RapidFire/MS/MS readout with 0.01% Tween added (Table 1 ranges with two asterisks **)). Conditions: CGT enzymatic assay; range with two asterisks (**): RapidFire/MS/MS method with 0.01% Tween added.
T1 construct: Full-length human CGT cDNA was cloned into the BamH1/Xho1 site of pcDNA3.1 (+); expressed in transfected cells; host or cells: Chinese hamster ovary (CHO) cells; lysate prepared with M-PER
T1 sequence (Q16880 21-541): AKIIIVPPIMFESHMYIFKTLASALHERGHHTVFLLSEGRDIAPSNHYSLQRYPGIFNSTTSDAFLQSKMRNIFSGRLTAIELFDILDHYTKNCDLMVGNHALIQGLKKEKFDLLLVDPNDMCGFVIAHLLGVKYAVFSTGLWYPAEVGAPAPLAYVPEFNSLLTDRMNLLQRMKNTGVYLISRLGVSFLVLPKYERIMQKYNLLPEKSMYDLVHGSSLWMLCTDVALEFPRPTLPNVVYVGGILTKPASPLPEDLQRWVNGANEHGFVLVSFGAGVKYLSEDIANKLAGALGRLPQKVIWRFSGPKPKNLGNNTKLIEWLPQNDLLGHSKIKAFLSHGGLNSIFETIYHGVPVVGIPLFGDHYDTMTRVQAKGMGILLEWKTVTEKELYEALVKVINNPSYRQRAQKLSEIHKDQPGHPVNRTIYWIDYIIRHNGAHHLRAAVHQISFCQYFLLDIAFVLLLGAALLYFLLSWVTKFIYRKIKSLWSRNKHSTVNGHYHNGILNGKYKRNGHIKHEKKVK
Assay type: biochemical
Description: Full-length human CGT cDNA was cloned into the BamH1/Xho1 site of pcDNA3.1 (+) mammalian expression vector (V90-20, Invitrogen, Carlsbad, Calif.) and the plasmid was transfected into Chinese hamster ovary (CHO) cells. Lysate was prepared using M-PER (Mammalian Protein Extraction Reagent, ThermoFisher Scientific, Grand Island, N.Y.) in the presence of a protease inhibitor cocktail (P8340, Sigma, Saint Louis, Mo.). Each 100 mm dish (100% confluent, approximately 1×10^7 cells) was lysed with 250 μL of M-PER containing protease inhibitors. Protein concentration was determined using a Pierce BCA protein assay kit (ThermoFisher Scientific). Four micrograms of CHO/CGT lysate was incubated with various concentrations of a compound (0.001 μM-50 μM) in 10 mM HEPES (pH 7.2) containing 35 μM dioleoylphosphatidylcholine, 5 mM MgCl2, 5 mM MnCl2, 1% BSA, 15 mM KCl, 1 mM EGTA, 8 mM CHAPS, 10 μM C6-NBD-dihydro-ceramide and 17.5 μM UDP-galactose in a final reaction volume of 20 μL at 37° C. for 1 hour. The final concentration of DMSO was 0.5% in both compound-treated and mock-treated samples. Tween 80 (0.01%) was optionally added to the reaction mixture to help solubilize the compounds. Each individual reaction was diluted with 80 μL of methanol:acetronitrile (1:3) containing 5 μM N-docdecanoyl-NBD-galactosylceramide (internal standard) to stop the reaction. 200 μL H2O:acetonitile (1:1) was added to precipitate the protein. After sufficient mixing, the plates were centrifuged at 2469 g for 38 minutes, 200 μL of supernatant was transferred to a LC/MS 96-deep well plate and a second spin was performed at 2469 g for 10 minutes. The final supernatant was injected in triplicate for RapidFire/MS/MS analysis.
Quantitative Analysis Using the RapidFire/MS/MS Method:
The quantitative analysis of C6-NBD-dihydro-ceramide and C6-NBD-dihydro-galactosylceramide was performed on a Rapid Fire 360 high-throughput mass spectrometry system (Agilent Technologies, Palo Alto, Calif.) coupled with a API4000^+ triple quadrupole mass spectrometer (Applied Biosystems, Concord, Ontario, Canada). RapidFire software packages, including RapidFire Control panel, RapidFire UI and RapidFire Integrator (Agilent Technologies), were used to control the RapidFire instrument and to process data. Analyst 1.6.2 software packages (Applied Biosystems) were used to control the MS system and acquire MS data. […] of sample was loaded on a micro-scale C4 solid-phase extraction (SPE) cartridge (Agilent Technologies) and salts were removed using water supplemented with 0.1% formic acid at the flow rate of 1.5 mL/min for 3 sec. C6-NBD-dihydro-ceramide and C6-NBD-dihydro-galactosylceramide were co-eluted into the mass spectrometer using acetonitrile containing 0.1% formic acid at the flow rate of 1.0 mL/min for 3 sec. The total cycle time of one injection was 8 secs. The MS/MS detection was performed in ESI negative mode. The mass transition of C6-NBD-dihydro-galactosylceramide was m/z 752.6→678.6 using a −40 V collision energy, the mass transition of C6-NBD-dihydro-ceramide was m/z 590.6→115.8 using a −40 V collision energy and the mass transition of N-docdecanoyl-NBD-galactosylceramide was m/z 820.9→746.3 using a −45 V collision energy.
The C6-NBD-dihydro-galactosylceramide reading was normalized first by dividing the peak area of C6-NBD-dihydro-galactosylceramide by the peak area of the internal standard, N-docdecanoyl-NBD-galactosylceramide. IC50 values (see Table 1, where data ranges with one asterix (*) correspond to analysis using the RapidFire/MS/MS method, and data ranges with two asterixes (**) correspond to analysis using the RapidFire/MS/MS method with 0.01% Tween added) were generated from sigmoidal dose-response curves (variable slope) with GraphPad Prism software (GraphPad Software, Inc., San Diego, Calif.) using the normalized peak areas of C6-NBD-dihydro-galactosylceramide or the percent inhibition of C6-NBD-dihydro-galactosylceramide accumulation relative to DMSO control. […]

First: N[C@H]1CCN(C(=O)[C@@H](NS(=O)(=O)c2ccc3cc(OC4CCCC4)ccc3c2)C(F)(F)c2ccc(-c3ccc(Cl)cc3)cc2)C1 [Compound 148-1, N—((R)-3-((S)-3-aminopyrrolidin-1-yl)-1-(4′-chloro-[1,1′-biphenyl]-4-yl)-1,1-difluoro-3-oxopropan-2-yl)-6-(cyclopentyloxy)naphthalene-2-sulfonamide trifluoroacetate]
Second: N[C@H]1CCN(C(=O)[C@H](NS(=O)(=O)c2ccc3cc(OC4CCCC4)ccc3c2)C(F)(F)c2ccc(-c3ccc(Cl)cc3)cc2)C1 [Compound 148-2, N—((S)-3-((S)-3-aminopyrrolidin-1-yl)-1-(4′-chloro-[1,1′-biphenyl]-4-yl)-1,1-difluoro-3-oxopropan-2-yl)-6-(cyclopentyloxy)naphthalene-2-sulfonamide trifluoroacetate]
The IC50 of the first is lower: 1 to 10 µM for the first, 10 to 30 µM for the second.

First: N[C@@H]1CCN(C(=O)[C@@H](NS(=O)(=O)c2ccc3cc(OC4CCCC4)ccc3c2)C(F)(F)c2ccc(-c3ccc(Cl)cc3)cc2)C1 [Compound 149-1, N—((R)-3-((R)-3-aminopyrrolidin-1-yl)-1-(4′-chloro-[1,1′-biphenyl]-4-yl)-1,1-difluoro-3-oxopropan-2-yl)-6-(cyclopentyloxy)naphthalene-2-sulfonamide trifluoroacetate]
Second: N[C@@H]1CCN(C(=O)[C@H](NS(=O)(=O)c2ccc3cc(OC4CCCC4)ccc3c2)C(F)(F)c2ccc(-c3ccc(Cl)cc3)cc2)C1 [Compound 149-2, N—((S)-3-((R)-3-aminopyrrolidin-1-yl)-1-(4′-chloro-[1,1′-biphenyl]-4-yl)-1,1-difluoro-3-oxopropan-2-yl)-6-(cyclopentyloxy) naphthalene-2-sulfonamide trifluoroacetate]
The IC50 of the first is lower: less than 1 µM for the first, 1 to 10 µM for the second. The first is the more potent here.

First: N[C@H]1[C@@H]2CC[C@H]1CN(C(=O)[C@@H](NS(=O)(=O)c1ccc3cc(OC4CCCC4)ccc3c1)C(F)(F)c1ccc(Cl)cc1)C2 [Compound 150-1, N—((R)-3-((1R,5S,8R)-8-amino-3-azabicyclo[3.2.1]octan-3-yl)-1-(4-chlorophenyl)-1,1-difluoro-3-oxopropan-2-yl)-6-(cyclopentyloxy)naphthalene-2-sulfonamide trifluoroacetate]
Second: N[C@H]1[C@@H]2CC[C@H]1CN(C(=O)[C@H](NS(=O)(=O)c1ccc3cc(OC4CCCC4)ccc3c1)C(F)(F)c1ccc(Cl)cc1)C2 [Compound 150-2, N—((S)-3-((1R,5S,8S)-8-amino-3-azabicyclo[3.2.1]octan-3-yl)-1-(4-chlorophenyl)-1,1-difluoro-3-oxopropan-2-yl)-6-(cyclopentyloxy)naphthalene-2-sulfonamide trifluoroacetate]
The IC50 of the first is lower: less than 1 µM for the first, 1 to 10 µM for the second.

First: O=C([C@@H](NS(=O)(=O)c1ccc(OCC2CCCCC2)cc1)C(F)(F)c1ccc(-c2ccc(Cl)cc2)cc1)N1CCNCC1 [Compound 151-1, (R)—N-(1-(4′-chloro-[1,1′-biphenyl]-4-yl)-1,1-difluoro-3-oxo-3-(piperazin-1-yl)propan-2-yl)-4-(cyclohexylmethoxy)benzenesulfonamide trifluoroacetate]
Second: O=C([C@H](NS(=O)(=O)c1ccc(OCC2CCCCC2)cc1)C(F)(F)c1ccc(-c2ccc(Cl)cc2)cc1)N1CCNCC1 [Compound 151-2, (S)—N-(1-(4′-chloro-[1,1′-biphenyl]-4-yl)-1,1-difluoro-3-oxo-3-(piperazin-1-yl)propan-2-yl)-4-(cyclohexylmethoxy) benzenesulfonamide trifluoroacetate]
The IC50 of the first is lower: 1 to 10 µM for the first, 30 to 100 µM for the second. The first is the more potent here.

First: NC1CC2CCC(C1)N2C(=O)[C@@H](NC(=O)[C@H](O)c1ccc(OCC2CCCCC2)cc1)C(F)(F)c1ccc(-c2ccc(Cl)cc2)cc1 (stereo partly drawn) [Compound 152-1, (2R)—N-((2R)-3-(3-amino-8-azabicyclo[3.2.1]octan-8-yl)-1-(4′-chloro-[1,1′-biphenyl]-4-yl)-1,1-difluoro-3-oxopropan-2-yl)-2-(4-(cyclohexylmethoxy)phenyl)-2-hydroxyacetamide trifluoroacetate]
Second: NC1CC2CCC(C1)N2C(=O)[C@H](NC(=O)[C@@H](O)c1ccc(OCC2CCCCC2)cc1)C(F)(F)c1ccc(-c2ccc(Cl)cc2)cc1 (stereo partly drawn) [Compound 152-2, (2S)—N-((2S)-3-(3-amino-8-azabicyclo[3.2.1]octan-8-yl)-1-(4′-chloro-[1,1′-biphenyl]-4-yl)-1,1-difluoro-3-oxopropan-2-yl)-2-(4-(cyclohexylmethoxy)phenyl)-2-hydroxyacetamide trifluoroacetate]
The IC50 of the first is lower: 1 to 10 µM for the first, 30 to 100 µM for the second. The first is the more potent here.

Compared with `NC1CC2CCC(C1)N2C(=O)[C@@H](NC(=O)[C@@H](O)c1ccc(OCC2CCCCC2)cc1)C(F)(F)c1ccc(-c2ccc(Cl)cc2)cc1` (stereo partly drawn) [Compound 152-3, (2S)—N-((2R)-3-(3-amino-8-azabicyclo[3.2.1]octan-8-yl)-1-(4′-chloro-[1,1′-biphenyl]-4-yl)-1,1-difluoro-3-oxopropan-2-yl)-2-(4-(cyclohexylmethoxy)phenyl)-2-hydroxyacetamide trifluoroacetate], `NC1CC2CCC(C1)N2C(=O)[C@H](NC(=O)[C@H](O)c1ccc(OCC2CCCCC2)cc1)C(F)(F)c1ccc(-c2ccc(Cl)cc2)cc1` (stereo partly drawn) [Compound 152-4, (2R)—N-((2S)-3-(3-amino-8-azabicyclo[3.2.1]octan-8-yl)-1-(4′-chloro-[1,1′-biphenyl]-4-yl)-1,1-difluoro-3-oxopropan-2-yl)-2-(4-(cyclohexylmethoxy)phenyl)-2-hydroxyacetamide trifluoroacetate] is higher in IC50: 1 to 10 µM for the first, 30 to 100 µM for the second.

First: CCOc1cc(-c2ccc(C(F)(F)[C@H](NS(=O)(=O)c3ccc(OCC4CCCCC4)cc3)C(=O)N3CCC(N)CC3)cc2)ccc1Cl [Compound 153-1, (R)—N-(3-(4-aminopiperidin-1-yl)-1-(4′-chloro-3′-ethoxy-[1,1′-biphenyl]-4-yl)-1,1-difluoro-3-oxopropan-2-yl)-4-(cyclohexylmethoxy)benzenesulfonamide trifluoroacetate]
Second: CCOc1cc(-c2ccc(C(F)(F)[C@@H](NS(=O)(=O)c3ccc(OCC4CCCCC4)cc3)C(=O)N3CCC(N)CC3)cc2)ccc1Cl [Compound 153-2, (S)—N-(3-(4-aminopiperidin-1-yl)-1-(4′-chloro-3′-ethoxy-[1,1′-biphenyl]-4-yl)-1,1-difluoro-3-oxopropan-2-yl)-4-(cyclohexylmethoxy) benzenesulfonamide trifluoroacetate]
The IC50 of the first is lower: 1 to 10 µM for the first, 30 to 100 µM for the second. The first is the more potent here.
